Assay results: patent US5552422A, “Aryl substituted 5,5 fused aromatic nitrogen compounds as anti-inflammatory agents” (Merck Frosst Canada, Inc., priority 1995, dated 1996)

Experiments:
Cox-1 = biological target: T1, Cox-1 (Homo sapiens, UniProt P23219); assay: Human whole blood assay, Cox-1 (clotting-induced TxB2 production); format: cell-based; conditions: TxB2 following blood clotting
T1 construct: platelets in whole blood contain a large amount of the Cox-1 enzyme; endogenous in cells; host or cells: platelets in fresh human whole blood (clotting)
T1 sequence (P23219 24-599): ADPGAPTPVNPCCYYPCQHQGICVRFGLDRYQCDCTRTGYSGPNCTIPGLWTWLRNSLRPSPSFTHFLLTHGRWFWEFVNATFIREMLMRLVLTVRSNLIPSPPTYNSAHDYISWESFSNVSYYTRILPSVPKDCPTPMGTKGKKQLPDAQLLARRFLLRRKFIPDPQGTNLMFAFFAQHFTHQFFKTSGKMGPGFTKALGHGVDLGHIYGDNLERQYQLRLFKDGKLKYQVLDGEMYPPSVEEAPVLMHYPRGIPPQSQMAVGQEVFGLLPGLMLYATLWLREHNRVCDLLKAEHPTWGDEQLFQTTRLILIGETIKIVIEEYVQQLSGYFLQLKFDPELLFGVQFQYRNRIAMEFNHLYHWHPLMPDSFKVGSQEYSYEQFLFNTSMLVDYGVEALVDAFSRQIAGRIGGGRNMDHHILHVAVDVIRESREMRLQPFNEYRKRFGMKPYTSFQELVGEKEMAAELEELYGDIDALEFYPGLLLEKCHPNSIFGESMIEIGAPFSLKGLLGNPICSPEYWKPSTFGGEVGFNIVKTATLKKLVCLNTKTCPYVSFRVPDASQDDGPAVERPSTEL
Protocol: (§1) Immediately following blood clotting, platelets are activated through a thrombin-mediated mechanism.
Aliquots of 500 μL were immediately transferred to siliconized microcentrifuge tubes preloaded with 2 μL of either DMSO or a test compound at final concentrations varying from 10 nM to 30 μM. The tubes were vortexed and incubated at 37° C. for 1 hour to allow blood to clot.
(§2) In the assay, inhibition is determined by measuring the amount of prostaglandin E2 (PGE2) synthesized in the presence of arachidonic acid, cyclooxygenase-1 or cyclooxygenase-2 and a putative inhibitor.

Cox-2 = biological target: T2, Cox-2 (Homo sapiens, UniProt P35354); assay: Human whole blood assay, Cox-2 (LPS-induced PGE2 production); format: cell-based; conditions: PGE2 after LPS induction, 24 hours
T2 construct: incubation of human whole blood with LPS (lipopoly saccharide), which induces Cox-2; endogenous in cells
T2 sequence (P35354 18-604): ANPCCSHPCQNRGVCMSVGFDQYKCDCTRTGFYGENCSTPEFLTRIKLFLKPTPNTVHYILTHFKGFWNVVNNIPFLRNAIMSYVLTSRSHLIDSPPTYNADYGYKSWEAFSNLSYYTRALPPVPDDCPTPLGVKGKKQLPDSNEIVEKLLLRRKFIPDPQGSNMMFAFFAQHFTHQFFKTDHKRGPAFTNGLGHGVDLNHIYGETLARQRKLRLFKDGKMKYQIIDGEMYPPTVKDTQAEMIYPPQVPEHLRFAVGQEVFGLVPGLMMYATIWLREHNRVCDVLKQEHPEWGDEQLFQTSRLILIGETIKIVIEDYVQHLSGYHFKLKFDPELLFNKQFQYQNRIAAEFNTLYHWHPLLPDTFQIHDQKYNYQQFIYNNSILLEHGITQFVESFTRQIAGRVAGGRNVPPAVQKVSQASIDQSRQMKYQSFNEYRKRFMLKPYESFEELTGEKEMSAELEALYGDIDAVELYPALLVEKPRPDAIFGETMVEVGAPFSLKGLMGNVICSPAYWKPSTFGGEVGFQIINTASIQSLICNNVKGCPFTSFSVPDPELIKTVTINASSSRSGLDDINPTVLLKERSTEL
Protocol: as §1
Fresh blood was collected in heparinized tubes by venipuncture from both male and female volunteers. The subjects had no apparent inflammatory conditions and had not taken any NSAIDs for at least 7 days prior to blood collection. Plasma was immediately obtained from a 2 mL blood aliquot to use as blank (basal levels of PGE2).
as §2

rat paw edema = conditions: po, carrageenan paw edema, 3 hr
Protocol: Male Sprague-Dawley rats (150-200 g) were fasted overnight and were given po either vehicle (1% methocel or 5% Tween 80) or a test compound. One hr later, a line was drawn using a permanent marker at the level above the ankle in one hind paw to define the area of the paw to be monitored. The paw volume (V0) was measured using a plethysmometer (Ugo-Basile, Italy) based on the principle of water displacement. The animals were then injected subplantarly with 50 μl of 1% carrageenan solution in saline (FMC Corp, Maine) into the paw using an insulin syringe with a 25-gauge needle (i.e., 500 μg carrageenan per paw). Three hr later, the paw volume (V3) was measured and the increases in paw volume (V3 -V0) were calculated. The animals were sacrificed by CO2 aphyxiation and the absence or presence of stomach lesions scored. Data were compared with the vehicle-control values and percent inhibition calculated. […] All treatment groups were coded to eliminate observer bias.

IC50 (Cox-1) [µM] | IC50 (Cox-2) [µM] | Structure (SMILES) | ED50 (rat paw edema) [mg/kg]
> 30 | 0.33 | CS(=O)(=O)c1ccc(-c2c(-c3ccccc3)nc3sccn23)cc1 [Example 1, 5-(4-(Methylsulfonyl)phenyl)-6-phenylimidazo[2,1-b]thiazole] | 
 |  | COc1ccc2c(c1)c(CC(=O)O)c(C)n2C(=O)c1ccc(Cl)cc1 [Indomethacin, indomethacin] | 2
